Test results taken from ChEMBL document CHEMBL1909046, “DrugMatrix in vitro pharmacology data”.

Assays:
[1] = target: Beta-1 adrenergic receptor (Homo sapiens, UniProt P08588); assay: DRUGMATRIX: Adrenergic beta1 radioligand binding (ligand: [125I] Cyanopindolol); type: cell membranes, CHO-K1, Membrane; settings: cho-k1; Not Active = under 50% inhibition at 10 µM
[2] = target: T1, Cholecystokinin receptor type A (Homo sapiens, UniProt P32238); type: cell membranes, Membrane; settings: 1321-n1; note: in other assays of this panel Not Active means under 50% inhibition at 10 µM
T1 sequence (P32238 whole entry): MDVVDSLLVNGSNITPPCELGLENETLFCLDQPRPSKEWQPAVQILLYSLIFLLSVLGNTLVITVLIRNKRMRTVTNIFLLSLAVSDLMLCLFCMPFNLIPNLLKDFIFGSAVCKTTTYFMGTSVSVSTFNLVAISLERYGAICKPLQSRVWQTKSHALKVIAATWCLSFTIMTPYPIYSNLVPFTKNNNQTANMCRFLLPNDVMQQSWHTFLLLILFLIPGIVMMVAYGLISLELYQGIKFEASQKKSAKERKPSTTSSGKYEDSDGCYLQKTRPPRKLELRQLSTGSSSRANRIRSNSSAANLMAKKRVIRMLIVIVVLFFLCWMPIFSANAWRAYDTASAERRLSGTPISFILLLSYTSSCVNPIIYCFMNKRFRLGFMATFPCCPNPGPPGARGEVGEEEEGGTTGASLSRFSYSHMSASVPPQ

Cannabinoid receptor 1 = Cannabinoid receptor 1 (Homo sapiens, UniProt P21554); type: cell membranes, Membrane; settings: chem-1; note: in other assays of this panel Not Active means under 50% inhibition at 10 µM
Cannabinoid receptor 1, sequence (P21554 whole entry): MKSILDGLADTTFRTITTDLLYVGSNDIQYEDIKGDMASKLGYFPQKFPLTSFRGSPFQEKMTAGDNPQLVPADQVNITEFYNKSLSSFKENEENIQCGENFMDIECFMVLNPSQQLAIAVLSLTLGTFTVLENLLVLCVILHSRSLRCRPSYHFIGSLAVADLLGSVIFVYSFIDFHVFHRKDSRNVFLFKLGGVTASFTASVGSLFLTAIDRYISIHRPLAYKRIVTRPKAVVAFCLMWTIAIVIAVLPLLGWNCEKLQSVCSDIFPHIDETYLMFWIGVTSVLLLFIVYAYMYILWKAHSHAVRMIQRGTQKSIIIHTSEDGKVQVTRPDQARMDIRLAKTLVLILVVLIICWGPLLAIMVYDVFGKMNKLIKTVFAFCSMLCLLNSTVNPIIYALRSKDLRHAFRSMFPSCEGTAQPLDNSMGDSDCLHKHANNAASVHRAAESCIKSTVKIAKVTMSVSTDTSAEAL

[3] = target: T2, C-X-C chemokine receptor type 2 (Homo sapiens, UniProt P25025); type: cell membranes, Membrane; settings: cho-k1; note: in other assays of this panel Not Active means under 50% inhibition at 10 µM
T2 sequence (P25025 whole entry): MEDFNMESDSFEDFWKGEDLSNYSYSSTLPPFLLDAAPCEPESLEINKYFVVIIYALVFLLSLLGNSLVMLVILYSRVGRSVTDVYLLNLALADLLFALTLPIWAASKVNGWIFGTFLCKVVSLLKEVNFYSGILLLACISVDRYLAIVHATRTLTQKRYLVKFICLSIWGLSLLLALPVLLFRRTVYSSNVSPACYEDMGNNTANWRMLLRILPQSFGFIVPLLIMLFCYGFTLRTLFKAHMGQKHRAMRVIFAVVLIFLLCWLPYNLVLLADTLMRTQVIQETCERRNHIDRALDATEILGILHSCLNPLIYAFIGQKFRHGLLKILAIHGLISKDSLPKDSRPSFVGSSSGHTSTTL

[4] = DRUGMATRIX: beta-Lactamase enzyme inhibition (substrate: Nitrocefin); set-up: species or system Bacillus cereus; settings: Not Active = under 50% inhibition at 10 µM
[5] = target: T3, Nitric oxide synthase, inducible (Mus musculus, UniProt P29477); set-up: species or system Escherichia coli;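 note: inhibition of iNOS enzyme activity measured with L-arginine as substrate; in other assays of this panel Not Active means under 50% inhibition at 10 µM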
T3 sequence (P29477 whole entry): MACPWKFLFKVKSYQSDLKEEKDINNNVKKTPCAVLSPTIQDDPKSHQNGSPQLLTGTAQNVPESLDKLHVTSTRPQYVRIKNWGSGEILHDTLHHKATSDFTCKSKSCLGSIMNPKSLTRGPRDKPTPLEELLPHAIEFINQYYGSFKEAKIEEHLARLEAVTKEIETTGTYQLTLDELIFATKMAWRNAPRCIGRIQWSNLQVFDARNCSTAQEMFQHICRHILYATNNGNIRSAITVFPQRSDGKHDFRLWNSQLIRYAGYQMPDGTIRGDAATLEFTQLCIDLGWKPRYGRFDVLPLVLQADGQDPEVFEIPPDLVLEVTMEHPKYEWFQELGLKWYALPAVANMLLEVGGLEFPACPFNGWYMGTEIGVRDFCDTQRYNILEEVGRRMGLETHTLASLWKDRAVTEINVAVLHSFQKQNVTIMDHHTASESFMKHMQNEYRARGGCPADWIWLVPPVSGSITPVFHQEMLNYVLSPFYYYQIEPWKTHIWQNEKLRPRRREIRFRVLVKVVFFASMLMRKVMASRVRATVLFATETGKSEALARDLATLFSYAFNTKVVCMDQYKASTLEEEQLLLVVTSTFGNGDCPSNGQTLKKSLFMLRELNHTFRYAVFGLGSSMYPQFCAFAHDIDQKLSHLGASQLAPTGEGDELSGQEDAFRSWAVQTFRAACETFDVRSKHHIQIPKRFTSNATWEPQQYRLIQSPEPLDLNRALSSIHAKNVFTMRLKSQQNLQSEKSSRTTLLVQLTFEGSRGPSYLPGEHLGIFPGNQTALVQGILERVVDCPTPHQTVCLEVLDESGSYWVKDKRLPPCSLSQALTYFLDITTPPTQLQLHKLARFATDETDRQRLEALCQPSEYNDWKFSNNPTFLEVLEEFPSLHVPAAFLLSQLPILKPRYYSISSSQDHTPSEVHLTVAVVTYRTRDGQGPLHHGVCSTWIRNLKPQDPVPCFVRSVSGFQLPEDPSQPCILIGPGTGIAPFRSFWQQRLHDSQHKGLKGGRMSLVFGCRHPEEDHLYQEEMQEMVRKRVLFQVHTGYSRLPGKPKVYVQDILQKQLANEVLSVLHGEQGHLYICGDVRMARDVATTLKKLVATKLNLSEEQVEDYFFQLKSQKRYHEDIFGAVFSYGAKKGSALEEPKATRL

[6] = target: T4, Cysteinyl leukotriene receptor 1 (Homo sapiens, UniProt Q9Y271); type: cell membranes, CHO-K1, Membrane; settings: cho-k1; note: in other assays of this panel Not Active means under 50% inhibition at 10 µM
T4 sequence (Q9Y271 whole entry): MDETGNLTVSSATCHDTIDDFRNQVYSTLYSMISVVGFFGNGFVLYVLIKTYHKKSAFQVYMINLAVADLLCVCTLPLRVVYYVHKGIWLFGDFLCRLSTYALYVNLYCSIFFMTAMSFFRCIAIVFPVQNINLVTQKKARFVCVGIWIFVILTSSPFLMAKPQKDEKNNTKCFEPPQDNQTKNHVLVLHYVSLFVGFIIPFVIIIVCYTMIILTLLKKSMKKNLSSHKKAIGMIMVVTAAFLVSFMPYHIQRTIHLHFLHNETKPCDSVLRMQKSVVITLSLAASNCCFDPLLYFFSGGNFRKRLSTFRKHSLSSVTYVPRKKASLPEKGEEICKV

Insulin receptor = Insulin receptor (Rattus norvegicus, UniProt P15127); type: cell membranes, Wistar, Liver, Membrane; note: in other assays of this panel Not Active means under 50% inhibition at 10 µM
Insulin receptor, sequence (P15127 27-759 limits assumed): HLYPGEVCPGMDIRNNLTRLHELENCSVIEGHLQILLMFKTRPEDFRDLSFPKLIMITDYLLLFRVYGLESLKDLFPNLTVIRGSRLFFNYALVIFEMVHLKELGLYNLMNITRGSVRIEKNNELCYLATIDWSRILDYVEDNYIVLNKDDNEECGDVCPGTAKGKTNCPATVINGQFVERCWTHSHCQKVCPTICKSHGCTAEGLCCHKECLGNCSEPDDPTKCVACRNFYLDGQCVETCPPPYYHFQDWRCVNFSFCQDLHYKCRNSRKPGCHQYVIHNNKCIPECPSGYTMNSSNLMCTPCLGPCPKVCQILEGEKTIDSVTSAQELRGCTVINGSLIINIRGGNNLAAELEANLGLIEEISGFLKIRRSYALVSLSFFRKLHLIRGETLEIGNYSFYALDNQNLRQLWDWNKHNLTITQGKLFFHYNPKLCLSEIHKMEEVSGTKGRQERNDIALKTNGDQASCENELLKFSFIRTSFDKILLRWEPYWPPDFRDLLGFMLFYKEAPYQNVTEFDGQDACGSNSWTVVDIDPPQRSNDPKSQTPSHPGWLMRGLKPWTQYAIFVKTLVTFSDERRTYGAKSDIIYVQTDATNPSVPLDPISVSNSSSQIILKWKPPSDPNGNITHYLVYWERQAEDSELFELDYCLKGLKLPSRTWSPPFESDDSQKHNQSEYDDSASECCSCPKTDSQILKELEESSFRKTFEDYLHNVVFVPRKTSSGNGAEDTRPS
Insulin receptor, sequence (P15127 764-1383 limits assumed): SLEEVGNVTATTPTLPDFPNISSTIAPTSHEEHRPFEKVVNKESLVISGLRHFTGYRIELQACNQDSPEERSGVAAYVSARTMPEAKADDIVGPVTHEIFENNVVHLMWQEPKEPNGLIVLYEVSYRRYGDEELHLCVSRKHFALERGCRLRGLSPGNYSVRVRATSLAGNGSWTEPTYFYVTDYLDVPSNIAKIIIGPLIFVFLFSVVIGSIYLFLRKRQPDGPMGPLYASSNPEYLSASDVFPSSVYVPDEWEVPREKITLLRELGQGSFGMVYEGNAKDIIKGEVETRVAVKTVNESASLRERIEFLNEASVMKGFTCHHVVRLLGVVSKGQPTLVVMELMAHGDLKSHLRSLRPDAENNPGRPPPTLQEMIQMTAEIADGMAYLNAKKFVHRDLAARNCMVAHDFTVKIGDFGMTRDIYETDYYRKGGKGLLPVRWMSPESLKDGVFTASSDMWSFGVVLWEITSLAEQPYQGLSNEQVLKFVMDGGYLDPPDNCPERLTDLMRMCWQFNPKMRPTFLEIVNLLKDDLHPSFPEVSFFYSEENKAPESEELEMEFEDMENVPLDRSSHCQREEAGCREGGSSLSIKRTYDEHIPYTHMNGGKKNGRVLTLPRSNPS

Beta-1 adrenergic receptor, sequence (P08588 whole entry): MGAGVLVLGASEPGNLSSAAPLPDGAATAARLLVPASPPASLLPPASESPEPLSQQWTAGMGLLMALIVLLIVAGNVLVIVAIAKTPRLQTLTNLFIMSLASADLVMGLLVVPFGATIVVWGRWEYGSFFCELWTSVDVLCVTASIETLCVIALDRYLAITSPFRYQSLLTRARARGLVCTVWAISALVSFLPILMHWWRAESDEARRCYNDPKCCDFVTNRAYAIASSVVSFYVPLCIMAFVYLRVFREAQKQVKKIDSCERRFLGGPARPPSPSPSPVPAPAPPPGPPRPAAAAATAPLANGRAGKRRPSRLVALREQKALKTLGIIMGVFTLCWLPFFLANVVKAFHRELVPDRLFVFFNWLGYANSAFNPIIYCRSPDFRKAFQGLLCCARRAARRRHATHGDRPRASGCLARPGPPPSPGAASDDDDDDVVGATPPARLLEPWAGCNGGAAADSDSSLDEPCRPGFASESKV

Row | Compound | IC50 [1] | IC50 [2] | IC50 (Cannabinoid receptor 1) | IC50 [3] | IC50 [4] | Ki [4] | IC50 [5] | IC50 [6] | IC50 (Insulin receptor) | Ki [1] | Ki [2] | Ki (Cannabinoid receptor 1) | Ki [3] | Ki [5] | Ki [6] | Ki (Insulin receptor) | IC50 ([4]; read-out: IC50)
1 | CN(C)CCCN1c2ccccc2Sc2ccccc21 [PROMAZINE] | Not Active | Not Active | Not Active | Not Active | Not Active | Not Active | Not Active | Not Active | Not Active | – | – | – | – | – | – | – | –
2 | CC(O)CO (stereo not given) [PROPYLENE GLYCOL] | Not Active | Not Active | Not Active | Not Active | Not Active | Not Active | Not Active | Not Active | Not Active | – | – | – | – | – | – | – | –
3 | CADMIUM ACETATE | Not Active | Not Active | Not Active | Not Active | Not Active | Not Active | Not Active | Not Active | Not Active | Not Active | Not Active | Not Active | Not Active | Not Active | Not Active | Not Active | –
4 | LEAD (II) ACETATE | Not Active | Not Active | Not Active | Not Active | Not Active | Not Active | Not Active | Not Active | Not Active | Not Active | Not Active | Not Active | Not Active | Not Active | Not Active | Not Active | –
5 | LIPOPOLYSACCHARIDE E. COLI O55:B5 | Not Active | Not Active | Not Active | Not Active | – | – | Not Active | Not Active | Not Active | Not Active | Not Active | Not Active | Not Active | Not Active | Not Active | Not Active | 0.0387 µM
